Data from ChEMBL document CHEMBL1157737, “Natural ortho-dihydroxyisoflavone derivatives from aged Korean fermented soybean paste as potent tyrosinase and melanin formation inhibitors” (Bioorg Med Chem Lett, 2010).

Legend:
Melan-a = assay: Inhibition of melanin formation in mouse Melan-a cells after 5 days by ELISA; format: functional, cell-based; conditions: 120 h
Tyrosinase = target: T1, Tyrosinase (Mus musculus, UniProt P11344); assay: Inhibition of tyrosinase in mouse Melan-a cells by ELISA; format: cell-based
T1 sequence (P11344 whole entry): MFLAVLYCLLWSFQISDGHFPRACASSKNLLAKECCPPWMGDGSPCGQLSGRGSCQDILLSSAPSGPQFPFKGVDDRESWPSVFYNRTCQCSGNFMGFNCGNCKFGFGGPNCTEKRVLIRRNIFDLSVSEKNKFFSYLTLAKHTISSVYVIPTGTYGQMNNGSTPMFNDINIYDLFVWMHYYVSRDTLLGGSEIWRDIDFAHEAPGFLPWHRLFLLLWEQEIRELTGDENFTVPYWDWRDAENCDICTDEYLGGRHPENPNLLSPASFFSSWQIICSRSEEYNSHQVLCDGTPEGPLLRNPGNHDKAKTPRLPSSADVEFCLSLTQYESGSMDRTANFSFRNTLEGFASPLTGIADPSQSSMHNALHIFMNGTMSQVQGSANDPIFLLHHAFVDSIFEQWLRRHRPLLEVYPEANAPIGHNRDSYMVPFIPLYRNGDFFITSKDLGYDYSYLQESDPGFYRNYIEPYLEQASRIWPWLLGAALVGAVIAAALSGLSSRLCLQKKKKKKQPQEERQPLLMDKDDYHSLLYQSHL

[1] = Antioxidant activity assessed as superoxide radical scavenging activity after 2 mins by NBT reduction assay; format: functional

| IC50 (Melan-a) | IC50 (Tyrosinase) | IC50 [1] | SMILES |
| --- | --- | --- | --- |
| 98 µM | – | – | OC[C@H]1O[C@@H](Oc2ccc(O)cc2)[C@H](O)[C@@H](O)[C@@H]1O [ARBUTIN] |
| > 500 µM | > 500 µM | > 500 µM | O=c1c(-c2ccc(O)cc2)coc2cc(O)c(O)cc12 |
| > 500 µM | > 500 µM | > 500 µM | COc1cc2c(=O)c(-c3ccc(O)cc3)coc2cc1O [GLYCITEIN] |
| > 500 µM | > 500 µM | > 500 µM | O=c1c(-c2ccc(O)cc2)coc2cc(O)ccc12 [DAIDZEIN] |
| 57.8 µM | > 500 µM | 489 µM | O=c1c(-c2ccc(O)cc2)coc2cc(O)cc(O)c12 [GENISTEIN] |
| 7.83 µM | 5.23 µM | 10.5 µM | O=c1c(-c2ccc(O)c(O)c2)coc2cc(O)ccc12 |
| 12.2 µM | 11.2 µM | 18.1 µM | O=c1c(-c2ccc(O)cc2)coc2c(O)c(O)ccc12 |
| – | – | 65.1 µM | O=C1O[C@H]([C@@H](O)CO)C(O)=C1O [ASCORBIC ACID] |
